According to paper PMC8755562 (European Journal of Medicinal Chemistry, 2022):

Molecular target: recombinant human (rh)ACE2 (Homo sapiens, UniProt Q9BYF1)
Assay: fluorogenic exopeptidase assay
Assay type: biochemical

Sequence of recombinant human (rh)ACE2 (Q9BYF1 18-740 limits assumed): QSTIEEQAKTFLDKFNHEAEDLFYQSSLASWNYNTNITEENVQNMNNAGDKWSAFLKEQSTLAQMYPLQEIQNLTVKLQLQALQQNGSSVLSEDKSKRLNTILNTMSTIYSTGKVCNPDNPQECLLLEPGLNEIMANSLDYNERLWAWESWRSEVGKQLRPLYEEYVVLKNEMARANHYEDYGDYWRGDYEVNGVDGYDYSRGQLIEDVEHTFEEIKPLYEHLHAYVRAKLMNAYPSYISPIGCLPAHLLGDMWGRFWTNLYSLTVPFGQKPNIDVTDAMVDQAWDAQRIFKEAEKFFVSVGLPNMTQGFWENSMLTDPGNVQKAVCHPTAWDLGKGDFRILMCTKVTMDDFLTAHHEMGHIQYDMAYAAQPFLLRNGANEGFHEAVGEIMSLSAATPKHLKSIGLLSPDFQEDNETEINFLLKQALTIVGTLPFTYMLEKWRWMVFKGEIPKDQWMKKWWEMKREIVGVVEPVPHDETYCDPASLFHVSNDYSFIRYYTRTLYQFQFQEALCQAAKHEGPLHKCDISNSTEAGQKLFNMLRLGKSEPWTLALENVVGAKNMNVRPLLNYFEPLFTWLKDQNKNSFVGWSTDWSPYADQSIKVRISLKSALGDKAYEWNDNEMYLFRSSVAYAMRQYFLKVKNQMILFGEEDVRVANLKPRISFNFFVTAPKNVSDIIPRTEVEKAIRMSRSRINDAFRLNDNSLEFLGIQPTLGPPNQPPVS

In the case of `CC(C)C[C@H](N[C@@H](Cc1cncn1Cc1ccc(N)cc1)C(=O)O)C(=O)O` [compound 1, (S)-2-(((S)-2-(1-(4-aminobenzyl)-1H-imidazol-5-yl)-1-carboxyethyl)amino)-4-methylpentanoic acid], the IC50 is reported as 11.3 nM.

For `CC(C)C[C@H](N[C@@H](Cc1cncn1Cc1cc(Cl)cc(Cl)c1)C(=O)O)C(=O)O` [MLN-4760], the IC50 was 29.7 nM.
